Source: PubChem BioAssay AID2060889 (Molecular Pharmacology Branch, DTP, NCI, 2025)

Test system: LG0567-F671-PDC complex spheroids viability
Test: Anticancer human tumor LG0567-F671-PDC patient-derived lung adenocarcinoma cell line growth inhibition [RAS]
Details: for viability, T/C: stronger effect = lower value; active = viability on the fitted dose curve at most 10% of control; inactive = the rest
Summary of the method: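 Agents were tested in combination matrices in half-log decrements from a top concentration at or near clinical Cmax (10 microM if undetermined). Targets were multi-cell spheroids of tumour lines plus HUVEC and MSC stromal cells.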
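Also: spheroids exposed to compound for seven days before readout.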
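For IC50 in this document: luminescence signal used as a proxy for viable cells.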

CC(Nc1ccc2c(c1)OCCn1cc(N3C(=O)OCC3C(F)F)nc1-2)C(N)=O (configuration not stated) + CCn1c(-c2cccnc2C(C)OC)c2c3cc(ccc31)N1CCOC(CC(NC(=O)C(C(C)C)N(C)C(=O)C3(F)CCN(C(=O)C#CC(C)(C)N(C)C)CC3)C(=O)N3CCCC(N3)C(=O)OCC(C)(C)C2)C1
active: viability, T/C (second compound 0.000949 µM, first compound 0.1 µM) 8.72% | viability, T/C (second compound 0.000949 µM, first compound 0.316 µM) 8.3% | viability, T/C (second compound 0.000949 µM, first compound 1 µM) 7.21% | viability, T/C (second compound 0.000949 µM, first compound 3.16 µM) 5.43% | viability, T/C (second compound 0.000949 µM, first compound 10 µM) 4.31% | viability, T/C (second compound 0.003 µM, first compound 0.0316 µM) 9.17% | viability, T/C (second compound 0.003 µM, first compound 0.1 µM) 8.19% | viability, T/C (second compound 0.003 µM, first compound 0.316 µM) 7.67% | viability, T/C (second compound 0.003 µM, first compound 1 µM) 6.15% | viability, T/C (second compound 0.003 µM, first compound 3.16 µM) 6.22% | viability, T/C (second compound 0.003 µM, first compound 10 µM) 4.37% | viability, T/C (second compound 0.00949 µM, first compound 0.1 µM) 8.93% | viability, T/C (second compound 0.00949 µM, first compound 0.316 µM) 9.05% | viability, T/C (second compound 0.00949 µM, first compound 1 µM) 6.09% | viability, T/C (second compound 0.00949 µM, first compound 3.16 µM) 5.36% | viability, T/C (second compound 0.00949 µM, first compound 10 µM) 4.24% | viability, T/C (second compound 0.03 µM, first compound 0.0316 µM) 8.43% | viability, T/C (second compound 0.03 µM, first compound 0.1 µM) 7.85% | viability, T/C (second compound 0.03 µM, first compound 0.316 µM) 6.83% | viability, T/C (second compound 0.03 µM, first compound 1 µM) 5.59% | viability, T/C (second compound 0.03 µM, first compound 3.16 µM) 4.63% | viability, T/C (second compound 0.03 µM, first compound 10 µM) 3.89% | viability, T/C (second compound 0.0949 µM, first compound 0.0316 µM) 7.47% | viability, T/C (second compound 0.0949 µM, first compound 0.1 µM) 6.11% | viability, T/C (second compound 0.0949 µM, first compound 0.316 µM) 5.42% | viability, T/C (second compound 0.0949 µM, first compound 1 µM) 4.93% | viability, T/C (second compound 0.0949 µM, first compound 3.16 µM) 3.8% | viability, T/C (second compound 0.0949 µM, first compound 10 µM) 2.62% | viability, T/C (second compound 0.3 µM, first compound 0.0316 µM) 7.06% | viability, T/C (second compound 0.3 µM, first compound 0.1 µM) 4.74% | viability, T/C (second compound 0.3 µM, first compound 0.316 µM) 5.86% | viability, T/C (second compound 0.3 µM, first compound 1 µM) 3.71% | viability, T/C (second compound 0.3 µM, first compound 3.16 µM) 2.8% | viability, T/C (second compound 0.3 µM, first compound 10 µM) 1.69%
< 31.6 nM: IC50 (curve of first compound, second compound 0.000949 µM) | IC50 (curve of first compound, second compound 0.003 µM) | IC50 (curve of first compound, second compound 0.00949 µM) | IC50 (curve of first compound, second compound 0.03 µM) | IC50 (curve of first compound, second compound 0.0949 µM) | IC50 (curve of first compound, second compound 0.3 µM)
inactive: viability, T/C (second compound 0.000949 µM, first compound 0.0316 µM) 10.7% | viability, T/C (second compound 0.00949 µM, first compound 0.0316 µM) 9.41%

CC1(O)CCCC1n1c(=O)c(C(F)F)cc2cnc(NC3CCN(S(C)(=O)=O)CC3)nc21 (configuration not stated) + C#Cc1c(F)ccc2cc(O)cc(-c3ncc4c(N5CC6CCC(C5)N6)nc(OCC56CCCN5CC(F)C6)nc4c3F)c12
5850 nM: IC50 (curve of first compound, second compound 0.0316 µM)
3370 nM: IC50 (curve of first compound, second compound 0.316 µM)
6120 nM: IC50 (curve of first compound, second compound 0.1 µM)
< 31.6 nM: IC50 (curve of first compound, second compound 1 µM) | IC50 (curve of first compound, second compound 3.16 µM) | IC50 (curve of first compound, second compound 10 µM)
inactive: viability, T/C (second compound 0.0316 µM, first compound 0.0316 µM) 85.5% | viability, T/C (second compound 0.0316 µM, first compound 0.1 µM) 68.3% | viability, T/C (second compound 0.0316 µM, first compound 0.316 µM) 77.8% | viability, T/C (second compound 0.0316 µM, first compound 1 µM) 85.4% | viability, T/C (second compound 0.0316 µM, first compound 3.16 µM) 78.9% | viability, T/C (second compound 0.0316 µM, first compound 10 µM) 24.9% | viability, T/C (second compound 0.1 µM, first compound 0.0316 µM) 72.2% | viability, T/C (second compound 0.1 µM, first compound 0.1 µM) 59.1% | viability, T/C (second compound 0.1 µM, first compound 0.316 µM) 75.2% | viability, T/C (second compound 0.1 µM, first compound 1 µM) 81.6% | viability, T/C (second compound 0.1 µM, first compound 3.16 µM) 76.9% | viability, T/C (second compound 0.1 µM, first compound 10 µM) 33.1% | viability, T/C (second compound 0.316 µM, first compound 0.0316 µM) 56.1% | viability, T/C (second compound 0.316 µM, first compound 0.1 µM) 56.2% | viability, T/C (second compound 0.316 µM, first compound 0.316 µM) 62.7% | viability, T/C (second compound 0.316 µM, first compound 1 µM) 54.5% | viability, T/C (second compound 0.316 µM, first compound 3.16 µM) 71.1% | viability, T/C (second compound 0.316 µM, first compound 10 µM) 27.5% | viability, T/C (second compound 1 µM, first compound 0.0316 µM) 33.1% | viability, T/C (second compound 1 µM, first compound 0.1 µM) 36.8% | viability, T/C (second compound 1 µM, first compound 0.316 µM) 45.6% | viability, T/C (second compound 1 µM, first compound 1 µM) 40% | viability, T/C (second compound 1 µM, first compound 3.16 µM) 40.6% | viability, T/C (second compound 1 µM, first compound 10 µM) 18.3% | viability, T/C (second compound 3.16 µM, first compound 0.0316 µM) 17.3% | viability, T/C (second compound 3.16 µM, first compound 0.1 µM) 23.6% | viability, T/C (second compound 3.16 µM, first compound 0.316 µM) 25.2% | viability, T/C (second compound 3.16 µM, first compound 1 µM) 29.3% | viability, T/C (second compound 3.16 µM, first compound 3.16 µM) 23.3% | viability, T/C (second compound 3.16 µM, first compound 10 µM) 14.6% | viability, T/C (second compound 10 µM, first compound 0.0316 µM) 14.2% | viability, T/C (second compound 10 µM, first compound 0.1 µM) 15.3% | viability, T/C (second compound 10 µM, first compound 0.316 µM) 17.8% | viability, T/C (second compound 10 µM, first compound 1 µM) 18.5% | viability, T/C (second compound 10 µM, first compound 3.16 µM) 14.7% | viability, T/C (second compound 10 µM, first compound 10 µM) 8.46%

CC(C)NCC(C(=O)N1CCN(c2ncnc3c2C(C)CC3O)CC1)c1ccc(Cl)cc1 (configuration not stated)
inactive: viability, T/C (compound 0.0316 µM) 101% [middle of 4 runs] | viability, T/C (compound 0.1 µM) 91.3% [middle of 4 runs] | viability, T/C (compound 0.316 µM) 77.4% [middle of 4 runs] | viability, T/C (compound 1 µM) 61.6% [middle of 4 runs] | viability, T/C (compound 10 µM) 63.5% [middle of 4 runs]
> 10000 nM: IC50 (curve of compound)

CCN1CCN(Cc2ccc(Nc3ncc(F)c(-c4cc(F)c5nc(C)n(C(C)C)c5c4)n3)nc2)CC1
inactive: viability, T/C (compound 0.00316 µM) 94.3% [middle of 4 runs] | viability, T/C (compound 0.01 µM) 85% [middle of 4 runs] | viability, T/C (compound 0.0316 µM) 82.3% [middle of 4 runs] | viability, T/C (compound 0.1 µM) 80.7% [middle of 4 runs] | viability, T/C (compound 0.316 µM) 75.6% [middle of 4 runs] | viability, T/C (compound 1 µM) 67% [middle of 4 runs]
> 1000 nM: IC50 (curve of compound)
